Assay results published in patent US20230027066A1 (Urovant Sciences GmbH, priority 2019, published 2023).

Assays:
[1] = tested on: men and women with overactive bladder; test: 40-week extension study (52 weeks), efficacy; type: in vivo, human; settings: for UUI Episodes 75% Responders at Week 52 / UUI Episodes 100% Responders at Week 52 / Urgency Episodes 50% Responders at Week 52: multiple imputation
Excerpt: All CFB calculations used the parent study Baseline value.

[2] = Phase 3 study (75 mg), adverse events; type: in vivo, human
Method: Study assessments of safety included adverse events, physical examinations, vital signs (and weight), and clinical laboratory tests
An adverse event is any untoward medical occurrence in a patient or clinical investigation patient, temporally associated with the use of a medicinal product, whether or not considered related to the medicinal product.
Adverse Events of Clinical Interest for this study included:
Safety analyses were conducted using the SAF and summarized by treatment group as treated. The treatment-emergent period is defined as the period of time from the first dose date of the double blinded Study Treatment through 28 days after the last dose of Study Treatment, or the date of initiation of another investigational agent or surgical intervention or rollover to the extension study, whichever occurs first. Safety was assessed through summaries of adverse events, the frequency of treatment discontinuations due to adverse events, and clinical laboratory evaluations.

[3] = 40-Week treatment group, Full Analysis Set Extension
[4] = 52-Week treatment group, Full Analysis Set Extension

O=C(Nc1ccc(C[C@@H]2CC[C@H]([C@H](O)c3ccccc3)N2)cc1)[C@@H]1CCc2nccc(=O)n21 [Vibegron, (6S)-N-[4-[[(2S,5R)−5-[(R)-hydroxy(phenyl)methyl]pyrrolidin−2-yl]methyl]phenyl]−4-oxo−7,8-dihydro−6H-pyrrolo[1,2-a]pyrimidine−6-carboxamide]
Micturitions, Change from Baseline at Week 52, Mean ([1]; 40-Week arm): −3.1
UUI Episodes, Change from Baseline at Week 52, Mean ([1]; 40-Week arm): −2.3
UUI Episodes, Week 52 Mean ([1]; 40-Week arm): 1.2
Urgency Episodes, Change from Baseline at Week 52, Mean ([1]; 40-Week arm): −4.0
Urgency Episodes, Week 52 Mean ([1]; 40-Week arm): 4.7
Micturitions, Week 52 Mean ([1]; 40-Week arm, Full Analysis Set Extension): 9.3
Total urinary incontinence episodes, Change from Baseline Mean at Week 52 [1, 3]: −2.5
Total urinary incontinence episodes, Week 52 Mean [1, 3]: 1.8
UUI Episodes 75% Responders at Week 52 ([1]; 40-Week treatment group): 58.7%
UUI Episodes 100% Responders at Week 52 ([1]; 40-Week treatment group): 42.1%
Urgency Episodes 50% Responders at Week 52 ([1]; 40-Week treatment group): 51.4%
Micturitions, Change from Baseline at Week 52, Mean ([1]; 52-Week arm): −2.5
UUI Episodes, Change from Baseline at Week 52, Mean ([1]; 52-Week arm): −2.2
UUI Episodes, Week 52 Mean ([1]; 52-Week arm): 1.0
Urgency Episodes, Change from Baseline at Week 52, Mean ([1]; 52-Week arm): −3.4
Urgency Episodes, Week 52 Mean ([1]; 52-Week arm): 4.5
Micturitions, Week 52 Mean ([1]; 52-Week arm, Full Analysis Set Extension): 8.7
Total urinary incontinence episodes, Change from Baseline Mean at Week 52 [1, 4]: −2.5
Total urinary incontinence episodes, Week 52 Mean [1, 4]: 1.2
UUI Episodes 75% Responders at Week 52 ([1]; 52-Week treatment group): 61.0%
UUI Episodes 100% Responders at Week 52 ([1]; 52-Week treatment group): 40.8%
Urgency Episodes 50% Responders at Week 52 ([1]; 52-Week treatment group): 49.4%
UUI Episodes, Change from Baseline LS Mean (SE) at Week 52 ([1]; 52-Weeks arm, Full Analysis Set Extension for Incontinence): −2.2 (0.15)
Micturitions, Change from Baseline LS Mean (SE) at Week 52 ([1]; 52-Weeks arm, mixed model for repeated measures): −2.4 (0.24)
Urgency episodes, Change from Baseline LS Mean (SE) at Week 52 ([1]; 52-Weeks treatment, Full Analysis Set Extension): −3.4 (0.34)
Total urinary incontinence episodes, Change from Baseline LS Mean (SE) at Week 52 ([1]; 52-Weeks treatment, Full Analysis Set Extension for Incontinence): −2.5 (0.17)
% Responders, 50% Reduction in Total Inc at Week 52 ([1]; 52-week treatment, Table 97): 71%
% Responders, 50% Reduction in UE at Week 52 ([1]; 52-week treatment, Table 97): 49%
% Responders, 75% Reduction in UUI at Week 52 ([1]; 52-week treatment, Table 97): 61%
% Responders, 100% Reduction in UUI at Week 52 ([1]; 52-week treatment, Table 97): 41%
Micturitions, Least Squares Means CFB at Week 52 ([1]; 52-week treatment, Table 97): −2.4
Total Incontinence Episodes, Least Squares Means CFB at Week 52 ([1]; 52-week treatment, Table 97): −2.5
UUI Episodes, Least Squares Means CFB at Week 52 ([1]; 52-week treatment, Table 97): −2.2
Urgency Episodes (UE), Least Squares Means CFB at Week 52 ([1]; 52-week treatment, Table 97): −3.4
Volume Voided, mean change from baseline at Week 52 ([1]; 52-week treatment, Table 97): 26 mL
AE: ALT increase ([2]; 12-week study): 1 (0.2) n (%)
AE: AST increase ([2]; 12-week study): 1 (0.2) n (%)
AE: Atrial fibrillation ([2]; 12-week study): 1 (0.2) n (%)
AE: Bilirubin increased ([2]; 12-week study): 0 n (%)
AE: Blood creatinine increased ([2]; 12-week study): 1 (0.2) n (%)
AE: Blood pressure diastolic increased ([2]; 12-week study): 0 n (%)
AE: Blood pressure increased ([2]; 12-week study): 4 (0.7) n (%)
AE: Cardiac failure congestive ([2]; 12-week study): 1 (0.2%) n (%)
AE: Cerebrovascular accident ([2]; 12-week study): 1 (0.2) n (%)
AE: Chest discomfort ([2]; 12-week study): 4 (0.7) n (%)
AE: Chest pain ([2]; 12-week study): 0 n (%)
AE: Chronic kidney disease ([2]; 12-week study): 1 (0.2) n (%)
AE: Constipation ([2]; 12-week study): 9 (1.7) n (%)
AE: Cystitis ([2]; 12-week study): 1 (0.2) n (%)
AE: Diarrhea ([2]; 12-week study): 12 (2.2) n (%)
AE: Dizziness ([2]; 12-week study): 5 (0.9) n (%)
AE: Drug hypersensitivity ([2]; 12-week study): 2 (0.4) n (%)
AE: Dry mouth ([2]; 12-week study): 9 (1.7) n (%)
AE: Dysuria ([2]; 12-week study): 0 n (%)
AE: Escherichia urinary-tract infection ([2]; 12-week study): 0 n (%)
AE: Fatigue ([2]; 12-week study): 2 (0.4) n (%)
AE: Glomerular filtration rate decreased ([2]; 12-week study): 1 (0.2) n (%)
AE: Headache ([2]; 12-week study): 22 (4.0) n (%)
AE: Hepatic enzyme increased ([2]; 12-week study): 0 n (%)
AE: Hot flush ([2]; 12-week study): 4 (0.7) n (%)
AE: Hyperglycemia ([2]; 12-week study): 3 (0.6) n (%)
AE: Hypertension ([2]; 12-week study): 9 (1.7) n (%)
AE: Hypotension ([2]; 12-week study): 1 (0.2) n (%)
AE: Nasopharyngitis ([2]; 12-week study): 15 (2.8) n (%)
AE: Nausea ([2]; 12-week study): 12 (2.2) n (%)
AE: Pollakiuria ([2]; 12-week study): 0 n (%)
AE: Positional vertigo ([2]; 12-week study): 0 n (%)
AE: Residual urine volume increased ([2]; 12-week study): 4 (0.7) n (%)
AE: Somnolence ([2]; 12-week study): 2 (0.4) n (%)
AE: Syncope ([2]; 12-week study): 0 n (%)
AE: Tachycardia ([2]; 12-week study): 0 n (%)
AE: Transaminases increased ([2]; 12-week study): 1 (0.2) n (%)
AE: Type 2 diabetes mellitus ([2]; 12-week study): 2 (0.4) n (%)
AE: Urinary retention ([2]; 12-week study): 3 (0.6) n (%)
AE: Urinary tract infection ([2]; 12-week study): 27 (5.0) n (%)
AE: Vertigo ([2]; 12-week study): 1 (0.2) n (%)
AE: Back pain ([2]; patients ≥75 years): 2.7%
AE: Diarrhea ([2]; patients ≥75 years): 4.0%
AE: Dyspnea ([2]; patients ≥75 years): 4.0%
AE: Nausea ([2]; patients ≥75 years): 2.7%
AE: Rash ([2]; patients ≥75 years): 2.7%
AE: Somnolence ([2]; patients ≥75 years): 2.7%
AE: Upper respiratory tract infection ([2]; patients ≥75 years): 4.0%
AE: Urinary retention ([2]; patients ≥75 years): 2.7%
AE: Urinary tract infection ([2]; patients ≥75 years): 8.0%
Overall AE rate ([2]; patients ≥75 years): 49.3%
Any AE of clinical interest, % ([2]; safety population): (6.6%)
Patients with at least one treatment emergent serious AEs, % ([2]; safety population): (1.5) %
SAEs considered treatment-related by the investigator, % ([2]; safety population): (0.4) %
SAEs: Hospitalization, % ([2]; safety population): (1.3) %
SAEs: other serious criteria, % ([2]; safety population): (0.4) %
Patients with at least one treatment emergent adverse events, % ([2]; safety population, 12-week study): (38.7) %
Patients with at least one Serious AE ([2]; vibegron 75 mg or tolterodine ER 4 mg once daily, 12 weeks): 1.5%
